Measured values as given in patent US10941152B2, “Pyrazole compounds as modulators of FSHR and uses thereof” (TOCOPHERX, INC., priority 2014, dated 2021).

Assays:
[1] = biological target: T1, follicle-stimulating hormone (FSH) receptor (Rattus norvegicus, UniProt P20395); assay: Rat granulosa EC50 FSH (Assay B); format: cell-based
T1 construct: endogenous in cells; host or cells: rat granulosa cells
T1 sequence (P20395 18-692): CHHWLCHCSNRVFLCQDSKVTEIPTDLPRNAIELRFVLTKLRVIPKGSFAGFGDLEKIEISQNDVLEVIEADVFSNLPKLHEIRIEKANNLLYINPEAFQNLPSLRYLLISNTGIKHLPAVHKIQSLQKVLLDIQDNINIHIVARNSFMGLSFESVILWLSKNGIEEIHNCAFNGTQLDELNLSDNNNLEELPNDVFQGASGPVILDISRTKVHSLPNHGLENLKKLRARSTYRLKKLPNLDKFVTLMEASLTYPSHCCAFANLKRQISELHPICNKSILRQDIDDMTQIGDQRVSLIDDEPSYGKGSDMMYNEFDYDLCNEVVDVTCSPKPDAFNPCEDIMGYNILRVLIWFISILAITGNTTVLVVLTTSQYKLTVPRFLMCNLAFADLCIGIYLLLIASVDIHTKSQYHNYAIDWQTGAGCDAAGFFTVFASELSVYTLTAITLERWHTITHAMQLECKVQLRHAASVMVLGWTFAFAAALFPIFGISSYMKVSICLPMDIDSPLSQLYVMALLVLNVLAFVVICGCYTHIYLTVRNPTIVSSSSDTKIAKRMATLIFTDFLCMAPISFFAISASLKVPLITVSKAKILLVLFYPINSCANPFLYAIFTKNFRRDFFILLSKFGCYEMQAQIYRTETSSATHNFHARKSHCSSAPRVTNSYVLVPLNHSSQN
Experimental: Example 25. Rat granulosa EC50 FSH (Assay B)
The assay was performed pursuant to the teaching of Yanofsky et al. (2006) Allosteric activation of the follicle-stimulating hormone (FSH) receptor by selective, nonpeptide agonists (JBC 281(19): 13226-13233, which is incorporated by reference in the disclosure of the invention).

FSHR = biological target: T2, FSHR (Homo sapiens, UniProt P23945); assay: EC50 of cyclic AMP production in CHO FSHR cells + EC20 FSH (Assay A); format: cell-based; settings: cyclic AMP production in CHO FSHR cells + EC20 FSH (0.265 pM), HTRF
T2 construct: expressed in transfected cells; host or cells: CHO (Cho-FSHR-LUC-1-1-43)
T2 sequence (P23945 18-695): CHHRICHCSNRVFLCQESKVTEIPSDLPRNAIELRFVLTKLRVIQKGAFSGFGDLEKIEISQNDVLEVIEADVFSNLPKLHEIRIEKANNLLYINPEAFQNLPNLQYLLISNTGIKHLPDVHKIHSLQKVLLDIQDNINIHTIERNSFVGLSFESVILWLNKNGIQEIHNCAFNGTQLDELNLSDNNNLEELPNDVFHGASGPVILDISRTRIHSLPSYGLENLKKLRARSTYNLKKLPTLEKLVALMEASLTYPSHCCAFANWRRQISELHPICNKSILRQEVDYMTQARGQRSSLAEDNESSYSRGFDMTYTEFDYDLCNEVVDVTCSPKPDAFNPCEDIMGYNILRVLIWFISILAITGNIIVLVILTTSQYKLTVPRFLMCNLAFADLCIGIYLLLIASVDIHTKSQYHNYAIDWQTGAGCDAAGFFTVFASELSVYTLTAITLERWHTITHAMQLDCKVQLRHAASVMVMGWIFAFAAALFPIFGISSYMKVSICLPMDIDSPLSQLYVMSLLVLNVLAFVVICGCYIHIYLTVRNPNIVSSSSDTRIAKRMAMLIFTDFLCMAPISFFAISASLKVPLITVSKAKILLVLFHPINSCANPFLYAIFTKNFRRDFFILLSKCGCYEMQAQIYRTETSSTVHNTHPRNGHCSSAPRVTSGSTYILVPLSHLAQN
Experimental: Example 24. EC50 of cyclic AMP production in CHO FSHR cells+EC20 FSH (Assay A)
2500 Cho-FSHR-LUC-1-1-43 cells were plated per well in 5 al of phenol red free DMEM/F12+1% FBS. Cells were plated in 384 well, solid white low volume plates (Greiner 784075) by Multidrop. Cells were assayed by adding 100 al of 2×EC20 FSH/IBMX in DMEM/F12+0.1% BSA) by Multidrop to 2 al of test compound stamped in 384 well plates (compounds are diluted 1:50). The final FSH concentration was 0.265 pM, and the final IBMX concentration was 200 μM. The compound plate map was as follows: Column 1: 2 μl of DMSO; Column 2: 2 μl of DMSO; Columns 3-12 and 13-24: 2 μl of test compound, diluted 1:4 in 100% DMSO, or 2 μl of FSH, diluted 1:4 in DMEM/F12+0.1% BSA. The starting concentration for FSH was 50 nM (final concentration was 0.5 nM). Furthermore, Column 23 contained 2 μl of EC100 FSH reference (100×) (diluted in DMEM/F12+0.1% BSA) at a final concentration of 0.5 nM, and Column 24 contained 2 μl of 1 mM AS707664/2 reference compound 2. 5 μl of compound+EC20 FSH mixture were transferred to cell plates (1:2 dilution into 5 μl of cell media) The plates were incubated at 37° C. for 1 h. 10 μl of mixed HTRF (CisBio #62AM4PEC) reagents were added per well and incubated at room temperature for 1 h. The plates were read on Envision using the cAMP HTRF—low volume 384 well protocol. The readout was the calculated fluorescence ratio (665 nm/620 nm). Values given in percent (%) indicate the percental effect (response) at a certain concentration of agonist relative to the maximum response of the FSH standard.

SMILES | EC50 [1] | EC50 (FSHR)
COc1cc2c(cc1-c1cccc(C#N)c1F)-c1c(c(C(=O)N(C)C(C)(C)C)nn1-c1cc(Cl)cc(Cl)c1)CO2 [Compound 19, N-tert-butyl-8-(3-cyano-2-fluorophenyl)-1-(3,5-dichlorophenyl)-7-methoxy-N-methyl-1,4-dihydrochromeno[4,3-c]pyrazole-3-carboxamide] | 101 to 500 nM | < 10 nM
COc1cc2c(cc1-c1cncc(N)c1)-c1c(c(C(=O)N(C)C(C)(C)C)nn1-c1cc(Cl)cc(Cl)c1)CO2 [Compound 20, 8-(5-aminopyridin-3-yl)-N-tert-butyl-1-(3,5-dichlorophenyl)-7-methoxy-N-methyl-1,4-dihydrochromeno[4,3-c]pyrazole-3-carboxamide] | 101 to 500 nM | < 10 nM
COc1cc2c(cc1-c1ccnc(C#N)c1)-c1c(c(C(=O)N(C)C(C)(C)C)nn1-c1cc(Cl)cc(Cl)c1)CO2 [Compound 21, N-tert-butyl-8-(2-cyanopyridin-4-yl)-1-(3,5-dichlorophenyl)-7-methoxy-N-methyl-1,4-dihydrochromeno[4,3-c]pyrazole-3-carboxamide] | 10 to 100 nM | < 10 nM
COc1cc2c(cc1-c1cccc(O)c1)-c1c(c(C(=O)N(C)C(C)(C)C)nn1-c1cc(Cl)cc(Cl)c1)CO2 [Compound 22, N-tert-butyl-1-(3,5-dichlorophenyl)-8-(3-hydroxyphenyl)-7-methoxy-N-methyl-1,4-dihydrochromeno[4,3-c]pyrazole-3-carboxamide] | 10 to 100 nM | < 10 nM
COc1cc2c(cc1-c1cncc(CO)c1)-c1c(c(C(=O)N(C)C(C)(C)C)nn1-c1cc(Cl)cc(Cl)c1)CO2 [Compound 23, N-tert-butyl-1-(3,5-dichlorophenyl)-8-(5-(hydroxymethyl)pyridin-3-yl)-7-methoxy-N-methyl-1,4-dihydrochromeno[4,3-c]pyrazole-3-carboxamide] | 10 to 100 nM | < 10 nM
COc1cc2c(cc1-c1cncc(CO)c1)-c1c(c(C(=O)N3CCOCC3(C)C)nn1-c1cc(Cl)cc(Cl)c1)CO2 [Compound 24, (1-(3,5-dichlorophenyl)-8-(5-(hydroxymethyl)pyridin-3-yl)-7-methoxy-1,4-dihydrochromeno[4,3-c]pyrazol-3-yl)(3,3-dimethylmorpholino)methanone] | 10 to 100 nM | < 10 nM
COc1cc2c(cc1-c1cccc(F)c1C#N)-c1c(c(C(=O)N(C)C(C)(C)C)nn1-c1cc(Cl)cc(Cl)c1)CO2 [Compound 25, N-tert-butyl-8-(2-cyano-3-fluorophenyl)-1-(3,5-dichlorophenyl)-7-methoxy-N-methyl-1,4-dihydrochromeno[4,3-c]pyrazole-3-carboxamide] | 10 to 100 nM | < 10 nM
COc1cc2c(cc1-c1cc(C#N)ccn1)-c1c(c(C(=O)N(C)C(C)(C)C)nn1-c1cc(Cl)cc(Cl)c1)CO2 [Compound 26, N-tert-butyl-8-(4-cyanopyridin-2-yl)-1-(3,5-dichlorophenyl)-7-methoxy-N-methyl-1,4-dihydrochromeno[4,3-c]pyrazole-3-carboxamide] | 101 to 500 nM | 10 to 100 nM
COc1cc2c(cc1-c1ccn(C)n1)-c1c(c(C(=O)N(C)C(C)(C)C)nn1-c1cc(F)cc(Cl)c1)CO2 [Compound 27, N-tert-butyl-1-(3-chloro-5-fluorophenyl)-7-methoxy-N-methyl-8-(1-methyl-1H-pyrazol-3-yl)-1,4-dihydrochromeno[4,3-c]pyrazole-3-carboxamide] | > 500 nM | 10 to 100 nM
COc1cc2c(cc1-c1cncc(C#N)c1)-c1c(c(C(=O)N3CCOCC3(C)C)nn1-c1cc(F)cc(Cl)c1)CO2 [Compound 28, 5-(1-(3-chloro-5-fluorophenyl)-3-(3,3-dimethylmorpholine-4-carbonyl)-7-methoxy-1,4-dihydrochromeno[4,3-c]pyrazol-8-yl)nicotinonitrile] | 101 to 500 nM | < 10 nM
COc1cc2c(cc1-c1ccn(C)n1)-c1c(c(C(=O)N3CCOCC3(C)C)nn1-c1cc(F)cc(Cl)c1)CO2 [Compound 29, (1-(3-chloro-5-fluorophenyl)-7-methoxy-8-(1-methyl-1H-pyrazol-3-yl)-1,4-dihydrochromeno[4,3-c]pyrazol-3-yl)(3,3-dimethylmorpholino)methanone] | 101 to 500 nM | 10 to 100 nM
COc1cc2c(cc1-c1ccn(C)n1)-c1c(c(C(=O)N(C)C(C)(C)C)nn1-c1cc(C)cc(Cl)c1)CO2 [Compound 30, N-tert-butyl-1-(3-chloro-5-methylphenyl)-7-methoxy-N-methyl-8-(1-methyl-1H-pyrazol-3-yl)-1,4-dihydrochromeno[4,3-c]pyrazole-3-carboxamide] | 101 to 500 nM | 101 to 500 nM
COc1cc2c(cc1-c1ccn(C)n1)-c1c(c(C(=O)N3CCOCC3(C)C)nn1-c1cc(C)cc(Cl)c1)CO2 [Compound 31, (1-(3-chloro-5-methylphenyl)-7-methoxy-8-(1-methyl-1H-pyrazol-3-yl)-1,4-dihydrochromeno[4,3-c]pyrazol-3-yl)(3,3-dimethylmorpholino)methanone] | 101 to 500 nM | 10 to 100 nM
COc1cc(Cl)cc(-n2nc(C(=O)N(C)C(C)(C)C)c3c2-c2cc(-c4ccn(C)n4)c(OC)cc2OC3)c1 [Compound 32, N-tert-butyl-1-(3-chloro-5-methoxyphenyl)-7-methoxy-N-methyl-8-(1-methyl-1H-pyrazol-3-yl)-1,4-dihydrochromeno[4,3-c]pyrazole-3-carboxamide] | 101 to 500 nM | 10 to 100 nM
COc1cc(Cl)cc(-n2nc(C(=O)N3CCOCC3(C)C)c3c2-c2cc(-c4ccn(C)n4)c(OC)cc2OC3)c1 [Compound 33, (1-(3-chloro-5-methoxyphenyl)-7-methoxy-8-(1-methyl-1H-pyrazol-3-yl)-1,4-dihydrochromeno[4,3-c]pyrazol-3-yl)(3,3-dimethylmorpholino)methanone] | 10 to 100 nM | < 10 nM
COc1cc(Cl)cc(-n2nc(C(=O)N3CCOCC3(C)C)c3c2-c2cc(-c4cncc(C#N)c4)c(OC)cc2OC3)c1 [Compound 34, 5-(1-(3-chloro-5-methoxyphenyl)-3-(3,3-dimethylmorpholine-4-carbonyl)-7-methoxy-1,4-dihydrochromeno[4,3-c]pyrazol-8-yl)nicotinonitrile] | 10 to 100 nM | < 10 nM
